The record followed here is publication PMC7753047, “Reversal of Cancer Multidrug Resistance (MDR) Mediated by ATP-Binding Cassette Transporter G2 (ABCG2) by AZ-628, a RAF Kinase Inhibitor” (Frontiers in Cell and Developmental Biology, 2020).

The target of series [1] is T1, ABCG2 (Homo sapiens, UniProt Q9UNQ0).
T1 sequence (Q9UNQ0 1-655): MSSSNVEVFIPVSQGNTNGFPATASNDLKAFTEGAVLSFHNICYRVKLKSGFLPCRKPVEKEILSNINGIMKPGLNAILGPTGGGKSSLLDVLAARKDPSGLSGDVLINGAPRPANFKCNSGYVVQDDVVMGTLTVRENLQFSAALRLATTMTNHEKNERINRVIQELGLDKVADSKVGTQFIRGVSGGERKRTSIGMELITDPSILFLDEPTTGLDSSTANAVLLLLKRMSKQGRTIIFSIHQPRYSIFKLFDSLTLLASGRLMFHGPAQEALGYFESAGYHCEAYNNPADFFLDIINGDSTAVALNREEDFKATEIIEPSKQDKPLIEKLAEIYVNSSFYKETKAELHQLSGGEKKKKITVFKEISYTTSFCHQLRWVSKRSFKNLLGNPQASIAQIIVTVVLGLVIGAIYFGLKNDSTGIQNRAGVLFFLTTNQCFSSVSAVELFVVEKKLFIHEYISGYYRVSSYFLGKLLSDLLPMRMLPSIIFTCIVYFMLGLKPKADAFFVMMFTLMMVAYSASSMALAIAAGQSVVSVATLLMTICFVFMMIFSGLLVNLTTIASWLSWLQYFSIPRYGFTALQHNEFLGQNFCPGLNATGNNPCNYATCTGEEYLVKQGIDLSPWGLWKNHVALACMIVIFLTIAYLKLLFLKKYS
Put plainly: vanadate-sensitive ATPase assay in ABCG2 membranes (stimulation up to […]); also inhibition of [3H]-mitoxantrone efflux at […]. In kind it is cell-based. Further details: full-length human ABCG2 in membranes of transfected HEK293 cells. As to conditions: read-out: vanadate-sensitive ATPase assay in ABCG2 membranes (stimulation up to 4.3-fold).

The target of series [2] is T1, ABCG2. The experiment in a line: vanadate-sensitive ATPase assay in ABCG2 membranes (stimulation). In kind it is cell-based. Further details: full-length human ABCG2 in membranes of transfected HEK293 cells.
Series [3] concerns the target T1, ABCG2.

Take `Cc1ccc(NC(=O)c2cccc(C(C)(C)C#N)c2)cc1Nc1ccc2ncn(C)c(=O)c2c1` [AZ-628]: the maximal fold induction on ABCG2 [1] was 4.3.

On to `COc1ccc([C@@H](O)c2cc(-c3ncnc4cc(N5CCOCC5)ccc34)c(F)cc2Cl)nn1` [M3814], for which, at ABCG2 [2], the “vanadate-sensitive ATPase assay in ABCG2 membranes (stimulation)” value is listed as “The results showed that AZ-628 stimulated ABCG2 ATPase to a higher level than M3814”. For `O=C1c2c(O)ccc(O)c2C(=O)c2c(NCCNCCO)ccc(NCCNCCO)c21` [mitoxantrone], the “[3H]-mitoxantrone efflux from ABCG2-overexpressing cells” value on ABCG2 [3] is “plotted to reflect the efflux of [^3H]-mitoxantrone by ABCG2”. `CC[C@@]1(O)C(=O)OCc2c1cc1n(c2=O)Cc2cc3c(CN(C)C)c(O)ccc3nc2-1` [topotecan]: on ABCG2 [2], the “vanadate-sensitive ATPase assay in ABCG2 membranes (stimulation)” value is reported as “Compared with the ABCG2 substrate topotecan, which is also an ABCG2 ATPase stimulator, AZ-628 showed stronger activation effects”.
